Tests used:
S1P2 receptor [1] = target: T1, S1P2 receptor (Homo sapiens, UniProt O95136); test: [32P]S1P binding assay; conditions: concentrations up to 10 μM (data not shown)
T1 construct: expressed in transfected cells; host or cells: HEK293T, transient transfection; membranes
Method: [^32P]-S1P was prepared by incubating sphingosine and [γ-^32P]ATP with cell lysate from HEK293T cells transiently transfected with human sphingosine kinase type 2 DNA. The 200 μl reaction contained 0.025 mM sphingosine, 1 mCi [γ-^32P]ATP (7000 Ci/mmol) and kinase buffer (in mM: Mg(C2H3O2)2 (in 50 mM Tris, pH 7.5)/10, NaF/10, and semicarbizide/2). The reaction was initiated by the addition of 20 μg of cell lysate and incubated at 37° C. for at least 30 minutes. […] The organic layer was isolated and the extraction procedure repeated two additional times with the remaining aqueous fraction. The combined organic fractions were dried under a stream of nitrogen gas and resuspended in aqueous 0.1% fatty acid free BSA.
Bound ligand was separated from free ligand by rapid filtration and analyzed in a liquid scintillation counter.

S1P2 receptor [2] = target: T1, S1P2 receptor; test: [γ-35S]GTP binding assay, HEK293T membranes; assay type: biochemical
Description: (§1) The appropriate receptor plasmid DNA (encoding human S1P1, human S1P2, human S1P3, human S1P4, human S1P5, human LPA1, human LPA2 or human LPA3 receptors) is mixed with equal amounts of expression plasmids encoding human Gi2α (for S1P3, a mutated (C352F) rat Gi2α is used), cow β1, and cow γ2 proteins, and these DNAs are used to transfect monolayers of HEK293T cells (where ‘T’ indicates expression of the SV-40 virus large T antigen) using the calcium phosphate precipitate method (7). After about 60 hours, cells are harvested, membranes prepared, aliquoted, and stored at −70° C. until use (8).
(§2) The [γ-^35S]GTP binding assay is performed as described previously (8). Membranes containing 1-5 μg of protein are incubated in 0.1 ml of binding buffer (in mM: HEPES/50, NaCl/100, MgCl2/10, pH 7.5) containing 5 μg of saponin, 10 μM GDP, 0.1 nM [γ-^35S]GTP (1200 Ci/mmol), and indicated lipid(s) for 30 min at 30° C. and collected using a Brandel Cell Harvester (Gaithersburg, Md.). Samples are then analyzed for bound radionuclide.
Statistical Analysis. The EC50 and IC50 values for all dose response curves were determined by nonlinear regression analysis of all data using the Graphpad Prism© program. The error associated with the data collected is reported as the standard error of the mean (S.E.M).

[3] = test system: LPA1-3 EDG-family receptors; test: Activity at LPA receptors; assay type: biochemical, human; conditions: concentrations up to 30 μM
Description: as §1, §2

human S1P3 receptor = human S1P3 receptor (Homo sapiens, UniProt Q99500); test: Intracellular calcium mobilization, T24 cells transfected stably with human S1P3 receptor; assay type: cell-based; set-up: expressed in transfected cells
Method: (§3) […] monolayers are co-transfected with the human S1P1, S1P2, S1P3 receptor encoding DNAs and the pIRESpuro2 plasmid DNA (Clontech, San Jose, Calif.,) using either Lipofectamine 2000 (Invitrogen, Carlsbad, Calif.) or FuGENE 6 (Roche Applied Science, Indianapolis, Ind.). Clonal populations expressing the puromycin acetyltransferase gene are selected by addition of puromycin (Sigma-Aldrich, St. Louis, Mo.) to the culture media. T24 cells are grown in monolayers at 37° C. in a 5% CO2/95% air atmosphere in growth media consisting of: 95% DMEM/F-12 medium and 10% charcoal/dextran stripped FBS.
A FlexStation™ fluorimeter (Molecular Devices, Menlo Park, Calif.) was used to measure intracellular calcium in native T24 cells and T24 cells transfected stably with either human S1P2 or human S1P3 receptor DNA. Cells were seeded (˜50,000 cells/well) in 96-well, clear bottom black microplates (Corning Costar Corp.) and left overnight at 37° C. The cells were dye-loaded with 4 μM Fluo-4AM ester in a loading buffer (Hank's Balanced Salt Solution, […], containing 20 mM HEPES, 0.1% fatty acid free BSA, and 2.5 mM probenecid) for 30 minutes at 37° C. After washing cell monolayers three times with phosphate buffered saline, loading buffer was added and the cells exposed to sets of compounds for 3 minutes at 25° C. in the FlexStation™. In all cases, each concentration of every compound was tested in at least triplicate. […] The cells were washed with phosphate buffered saline and exposed to compounds immediately, as described above.
Briefly, nonlinear analysis of the best-fit line generated by plotting the negative log of the EC50 values obtained from agonist dose-response curves, in the absence and presence of varying concentrations of antagonist, was plotted against the concentration of antagonist to give the Kb value.

human S1P1 receptor = human S1P1 receptor (Homo sapiens, UniProt P21453); test: Cell migration assay, T24 cells transfected stably with human S1P1 receptor; assay type: cell-based; set-up: expressed in transfected cells
Method: as §3
Cell migration assays are performed using modified Boyden chambers (tissue culture-treated, 24-mm diameter, 10-μm thickness, 8-μm pores, Transwell®; Costar Corp., Cambridge, Mass.) containing polycarbonate membranes that are coated on the underside with 0.1% gelatin. The underside of the polycarbonate membranes is rinsed once with migration media (DMEM/F12 without Phenol Red and 0.1% fatty acid free BSA) and then immersed in the lower chamber containing two milliliters of migration media. T24 cells transfected stably with human S1P1 receptor DNA were grown in DMEM/F12 media containing charcoal/dextran stripped FBS and 10 μg/ml puromycin to 100% confluence in 150×2.5 mm tissue culture plates and serum starved at least 12 hours. Serum-starved cells were removed from culture dishes with 10× Trypsin-EDTA (Hanks' balanced salt solution containing 5 mM EDTA and 25 mM HEPES, pH 7.2, and 0.1% trypsin; Invitrogen, San Diego, Calif.), suspended in migration buffer and collected by centrifugation at 130×g for 5 minutes. The supernatant fluid was removed by aspiration and cell pellet resuspended in migration media (10^6 cells/ml). […] The non-migrating cells in the upper chamber were removed by aspiration and the migratory cells attached to the bottom surface of the membrane were isolated by incubation in 10× Trypsin-EDTA for 1 min at room temperature and gently tapping the plate to dislodge cells from the membrane. The mass of migratory cells per membrane was evaluated by combining 100 μl of cell suspension with an equal volume of CyQuant dye solution (3.0 ml of 2× lysis buffer and 15 μl CyQuant dye), and the resulting fluorescence quantified using the FlexStation™ fluorimeter (Molecular Devices, Menlo Park, Calif.). Each determination represents the average of two individual migration chambers. […] The monolayer was washed three times with phosphate buffered saline and processed immediately for the cell migration assay, as described above.

Chain of human S1P3 receptor (Q99500 whole entry): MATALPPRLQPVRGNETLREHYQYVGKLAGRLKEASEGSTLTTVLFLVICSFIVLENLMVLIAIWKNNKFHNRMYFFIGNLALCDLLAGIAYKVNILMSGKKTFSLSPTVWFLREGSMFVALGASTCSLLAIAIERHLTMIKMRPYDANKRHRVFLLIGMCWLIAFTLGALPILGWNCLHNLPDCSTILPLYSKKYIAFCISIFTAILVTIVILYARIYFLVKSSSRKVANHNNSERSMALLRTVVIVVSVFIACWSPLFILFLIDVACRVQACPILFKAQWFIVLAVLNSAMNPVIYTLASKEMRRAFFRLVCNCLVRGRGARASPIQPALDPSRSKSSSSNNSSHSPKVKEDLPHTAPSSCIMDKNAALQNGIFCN
T1 sequence (O95136 whole entry): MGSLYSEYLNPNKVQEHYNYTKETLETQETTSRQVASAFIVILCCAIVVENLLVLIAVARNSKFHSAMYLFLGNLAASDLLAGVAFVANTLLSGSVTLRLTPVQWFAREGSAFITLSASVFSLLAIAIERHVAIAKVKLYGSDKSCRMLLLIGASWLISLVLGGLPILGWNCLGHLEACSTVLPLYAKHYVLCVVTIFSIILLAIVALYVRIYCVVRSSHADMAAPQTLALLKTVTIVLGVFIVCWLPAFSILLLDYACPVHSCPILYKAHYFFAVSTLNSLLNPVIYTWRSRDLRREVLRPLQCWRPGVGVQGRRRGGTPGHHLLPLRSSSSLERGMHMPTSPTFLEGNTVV
Chain of human S1P1 receptor (P21453 whole entry): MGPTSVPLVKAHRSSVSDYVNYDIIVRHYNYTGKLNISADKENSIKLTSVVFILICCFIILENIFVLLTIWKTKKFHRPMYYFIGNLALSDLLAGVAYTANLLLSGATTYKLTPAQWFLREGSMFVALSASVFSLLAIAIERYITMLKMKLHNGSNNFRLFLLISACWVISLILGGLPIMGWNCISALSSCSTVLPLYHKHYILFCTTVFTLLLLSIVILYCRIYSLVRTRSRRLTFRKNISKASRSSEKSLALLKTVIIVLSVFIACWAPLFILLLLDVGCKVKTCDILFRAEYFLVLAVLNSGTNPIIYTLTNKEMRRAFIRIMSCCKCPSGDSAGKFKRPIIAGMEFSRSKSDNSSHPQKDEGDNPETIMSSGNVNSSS

`CCCCCCCCc1cccc(NC(=O)[C@H](N)COP(=O)(O)O)c1` [VPC23019] was tested, and the “Influence on binding of [32P]S1P to the S1P2 receptor” value (S1P2 receptor [1]) was “did not influence the binding”, the “Activity at the S1P2 receptor” value (S1P2 receptor [2]) was “devoid of agonist activity” and the EC50 (S1P2 receptor [2]; -log molar concentration giving 50% of maximal [γ-35S]GTP binding, ± S.E.M., read-out: pEC50 S1P2 (converted)) was > 10 µM. For the same compound, the “Agonist or antagonist activity at the human S1P2 receptor” value (S1P2 receptor [2]; concentrations up to 10 micromolar) was “inactive as either an agonist or antagonist”, the “Agonist activity at LPA1-3 receptors” value [3] was “neither agonist activity” and the “Reversibility of antagonism after washout, Ca2+ mobilization” value (human S1P3 receptor; 10000 nM VPC23019 pre-treatment followed by washout) was “recovered fully”. The “Competitive behaviour in calcium mobilization assay (nonlinear regression)” value (human S1P3 receptor; T24-S1P3 cells) was “did not behave as a competitive antagonist”, the “Calcium mobilization by compound alone” value (human S1P3 receptor; T24-S1P3 cells versus wild-type T24 cells) was “not a result of stimulation of the S1P3 receptor” and the “Blockade of VPC22277 (10 nM)-induced migration” value (human S1P1 receptor; 50 nM antagonist) was “Blockade”. For the same compound, the “Reversibility of antagonism after washout, cell migration” value (human S1P1 receptor; 10 μM VPC23019 pre-incubation 30 min, washed) was “recovered fully”, the “Blockade of VPC22277 (10 nM)-induced migration” value (human S1P1 receptor; 10, 100 and 1000 nM antagonist) was “blockade” and the “Migration of T24-S1P1 cells evoked by compound alone” value (human S1P1 receptor; VPC22277 10 nM, VPC23019 1 nM-1000 nM) was “no migration was evoked and not”.
